In patent publication US5773239A, “Mannosidase inhibitors, process for their preparation and their use as therapeutic agents” (Mount Sinai Hospital Corporation., priority 1995, dated 1998):

Tests used:
[1] = target: T1, rat liver Golgi α-mannosidase II (Rattus norvegicus, UniProt P28494); assay: Rat liver Golgi α-mannosidase II assay; assay type: biochemical; conditions: for IC50: para-nitrophenyl α-mannose, pH 5.6, read-out: IC50 ManII; for Ratio: ratio of lyso to ManII IC50 values
T1 construct: The assay for rat liver Golgi α-mannosidase II; from tissue; host or cells: rat liver (Golgi)
T1 sequence (P28494 1-1148): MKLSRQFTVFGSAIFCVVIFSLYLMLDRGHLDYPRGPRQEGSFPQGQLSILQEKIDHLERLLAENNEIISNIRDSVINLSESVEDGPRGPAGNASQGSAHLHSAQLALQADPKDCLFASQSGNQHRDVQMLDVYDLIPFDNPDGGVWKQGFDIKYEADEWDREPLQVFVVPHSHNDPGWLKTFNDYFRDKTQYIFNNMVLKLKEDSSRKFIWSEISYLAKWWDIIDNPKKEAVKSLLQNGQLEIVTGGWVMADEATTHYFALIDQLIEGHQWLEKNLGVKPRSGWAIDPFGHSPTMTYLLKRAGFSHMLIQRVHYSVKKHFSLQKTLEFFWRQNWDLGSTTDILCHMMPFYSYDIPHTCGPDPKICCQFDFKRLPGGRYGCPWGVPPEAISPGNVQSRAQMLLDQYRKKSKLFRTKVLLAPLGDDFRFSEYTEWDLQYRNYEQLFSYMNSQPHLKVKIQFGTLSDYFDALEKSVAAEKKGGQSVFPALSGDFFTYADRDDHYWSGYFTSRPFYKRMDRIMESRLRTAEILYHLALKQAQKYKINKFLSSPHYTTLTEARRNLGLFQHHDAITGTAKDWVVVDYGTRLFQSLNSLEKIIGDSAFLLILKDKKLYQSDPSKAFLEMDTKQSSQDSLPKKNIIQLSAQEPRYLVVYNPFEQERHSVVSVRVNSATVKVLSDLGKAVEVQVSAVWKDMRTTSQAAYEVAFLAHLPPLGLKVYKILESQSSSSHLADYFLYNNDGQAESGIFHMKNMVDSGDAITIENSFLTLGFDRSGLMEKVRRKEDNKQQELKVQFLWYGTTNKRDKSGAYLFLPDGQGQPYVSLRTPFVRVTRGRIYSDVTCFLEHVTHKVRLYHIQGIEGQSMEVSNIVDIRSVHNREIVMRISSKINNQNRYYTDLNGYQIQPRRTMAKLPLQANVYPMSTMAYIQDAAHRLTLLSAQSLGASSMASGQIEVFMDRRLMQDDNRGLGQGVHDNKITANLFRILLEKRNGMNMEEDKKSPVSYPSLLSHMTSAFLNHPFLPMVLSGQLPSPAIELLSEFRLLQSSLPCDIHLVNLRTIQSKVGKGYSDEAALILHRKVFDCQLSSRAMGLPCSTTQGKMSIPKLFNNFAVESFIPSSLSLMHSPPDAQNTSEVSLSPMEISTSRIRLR
Protocol: The assay for rat liver Golgi α-mannosidase II contained 5 mM para-nitrophenylα-mannose, 40 mM sodium acetate pH 5.6, plus serially diluted test compouunds and mannosidase enzyme in a total volume of 50 ul, in 96 well plates. Plates were incubated 45 min at 37° C., then the reaction was stopped with 50 μl of 0.5M sodium carbonate. […] The lysosomal mannosidase was done in the same procedure but with 40 mM sodium acetate buffer pH 5.0. The numbers in the table are IC50 values in μM for inhibition of mannosidase activity.

lysosomal mannosidase = assay: Lysosomal mannosidase assay (pH 5.0); assay type: biochemical; conditions: para-nitrophenyl α-mannose
Protocol: The assay for rat liver Golgi α-mannosidase II contained 5 mM para-nitrophenylα-mannose, 40 mM sodium acetate pH 5.6, plus serially diluted test compouunds and mannosidase enzyme in a total volume of 50 ul, in 96 well plates. Plates were incubated 45 min at 37° C., then the reaction was stopped with 50 μl of 0.5M sodium carbonate. The absorbance of reaction products was read at 405 nm. The lysosomal mannosidase was done in the same procedure but with 40 mM sodium acetate buffer pH 5.0. The numbers in the table are IC50 values in μM for inhibition of mannosidase activity.

MDAY-D2 tumor cells [2] = assay: L-PHA toxicity assay (inhibition of oligosaccharide processing in cells); assay type: cell-based, mouse; conditions: MDAY-D2 mouse lymphoma cells; read-out: IC50 for protection of cells from toxicity of LPHA lectin
Protocol: MDAY-D2 tumor cells were inoculated into 96 well micro-test plates at 2×10^4 cells/well, and containing serial dilutions of SW or SW analogues in MEM plus 10% FCS. The cells were cultured for 18-20 hr, followed by the addition of L-PHA at 25 μg/ml for an additional 24 hr. Cell proliferation was measured by adding 0.5 μCi/well of ^3 H-thymidine for 3-4 hr, harvesting onto glass fibre disks using a Titertek harvester and the disks were counted in a liquid scintillation counter. The apparent IC50 values for SW and the analogues are the drug concentrations showing 50% protection from L-PHA toxicity; that is 50% ^3 H-thymidine incorporated compared with cells grown in the absence of L-PHA. In experiments using the esterase inhibitor diethyl p-nitrophenyl phosphate, the compound was added to MDAY-D2 cells 4 hr prior to the α-mannosidase inhibitors and was present through-out the experiment.

[3] = Cellular toxicity / cell growth with compound alone (no L-PHA); assay type: cell-based; conditions: MDAY-D2 mouse lymphoma cells; read-out: Toxicity (cellular toxicity observed with compound alone)
MDAY-D2 tumor cells [4] = conditions: no drug; cited from earlier work

| Compound | selectivity Mannosidase II versus lysosomal mannosidase [1] | IC50 [1] [µM] | Ratio [1] | IC50 (lysosomal mannosidase) [µM] | IC50 (MDAY-D2 tumor cells [2]) [µM] | Concentration at which toxicity was seen with compound alone [3] [µM] | D50 for L-PHA toxicity (MDAY-D2 tumor cells [4]) [µg/mL] |
| --- | --- | --- | --- | --- | --- | --- | --- |
| OC[C@@H]1[C@H](O)[C@H](O)CN1Cc1ccccc1 [GD002] | favourable to Mannosidase II | 19 | 11.42 | 217 |  |  |  |
| CN1C[C@@H](O)[C@@H](O)[C@H]1CO [GD003, N-methyl-DIL] |  | 26.3 | 0.517 | 13.6 | 312 | > 5000 |  |
| CCCCN1C[C@@H](O)[C@@H](O)[C@H]1CO [GD004, N-butyl-DIL] |  | 50.9 | 0.50 | 25.5 | 625 | > 2500 |  |
| CCN1C[C@@H](O)[C@@H](O)[C@H]1CO [GD005, N-ethyl-DIL] |  | 33.9 | 0.42 | 14.3 | 312 | > 5000 |  |
| CCCN1C[C@@H](O)[C@@H](O)[C@H]1CO [GD006, N-propyl-DIL] |  | 22.1 | 0.87 | 19.2 | 156 | > 2500 |  |
| OC[C@@H]1[C@H](O)[C@H](O)CN1CC1CC1 [GD008, N-cyclo-propyl-methyl-DIL] |  | 8.3 | 0.59 | 4.9 | 40 | > 2500 |  |
| CC(O)C1[C@H](O)[C@H](O)CN1CC1CC1 (stereo partly drawn) [GD013] |  | 114 | 1.69 | 193 |  |  |  |
| CC(O)C1[C@H](O)[C@H](O)CN1CC1CCCCC1 (stereo partly drawn) [GD014] |  | 140 | 1.12 | 157 |  |  |  |
| L-PHA: toxic plant lectin (leukoagglutinin) purchased from Pharmacia |  |  |  |  |  |  | 5 |
